This note sets out measurements from article PMC11892739, “Site-specific molecular glues for the 14-3-3/Tau pS214 protein–protein interaction via reversible covalent imine tethering” (RSC Medicinal Chemistry, 2025).

Common to all, as to assay type: binding
One assay concerns the target T1, 14-3-3ζ/CFTR peptide (Homo sapiens, UniProt P63104).
T1 construct: made in house; host or cells: NiCo21 (DE3) E. coli
In words: FA peptide screen, 14-3-3ζ titration to client peptide and compound: CFTR. Particulars: 250 μM compound, 100 nM peptide; +1 Val. How it is done: (§1) Since the hub protein 14-3-3 binds to hundreds of phosphoprotein partners, selectivity of PPI stabilization is a major challenge. The interplay of chemical reactivity, and the topology and functionality of the composite binding pocket shaped by 14-3-3 and Tau potentially provide entries towards selective stabilization. […] Here, 14-3-3ζ was titrated to a constant concentration of client peptide (100 nM) and compound (250 μM) to determine the SF250μM values for the particular 14-3-3 PPI. A variety of 14-3-3 binding proteins was represented in this client panel whereby the size and hydrophobicity of the +1 amino acid were varied. […]
(§2) chromatography (HisTrap high performance cartridges, Cytiva). […] Dialyzed protein was concentrated to ∼40 mg/mL, analyzed by Q -Tof LC/MS, and aliquots were flash -frozen for storage at −80 °C. […]
(§3) 0.1% (v/v) Tween20, 0.1% (w/v) BSA). […] Measurements were performed directly after plate preparation, using a Tecan SPARK plate reader at room temperature ( λex: 485±20 nm; λem: 535±25 nm; mirror: automatic; flashes: 30; settle time: 1 ms; gain: optimal; Z -position: calculated from well). […] All data were analyzed using GraphPad Prism (10.0.1) and fitted with a four -parameter logistic model (4PL) to determine binding affinities (dissociation constant, KD). […]
(§4) Fluorescence Anisotropy – peptide screen […]

The target in another assay is T2, 14-3-3ζ/SOS1 peptide (Homo sapiens, UniProt P63104).
T2 construct: made in house; host or cells: NiCo21 (DE3) E. coli
In words: FA peptide screen, 14-3-3ζ titration to client peptide and compound: SOS1. Particulars: 250 μM compound, 100 nM peptide; +1 Ala. On the procedure:
as §1, §2, §3, §4

For the next assay, the target named is T3, 14-3-3ζ/p53 peptide (Homo sapiens, UniProt P63104).
T3 construct: made in house; host or cells: NiCo21 (DE3) E. coli
The assay can be described thus: FA peptide screen, 14-3-3ζ titration to client peptide and compound: p53. Particulars: 250 μM compound, 100 nM peptide; +1 Glu. How it is done: as §1, §2, §3, §4

T3 sequence (P63104 whole entry, other chains not shown): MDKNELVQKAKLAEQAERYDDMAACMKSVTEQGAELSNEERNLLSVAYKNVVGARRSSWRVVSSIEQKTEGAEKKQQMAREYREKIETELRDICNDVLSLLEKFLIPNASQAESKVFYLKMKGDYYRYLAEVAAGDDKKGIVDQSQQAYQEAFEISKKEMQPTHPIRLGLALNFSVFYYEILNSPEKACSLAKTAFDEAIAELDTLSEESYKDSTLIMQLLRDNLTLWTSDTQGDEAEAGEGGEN
T1 sequence (P63104 whole entry): as the sequence (P63104 whole entry, other chains not shown) above
T1 sequence (P13569 747-774 partner): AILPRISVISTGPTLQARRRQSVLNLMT
T2 sequence (P63104 whole entry, other chains not shown): as the sequence (P63104 whole entry, other chains not shown) above

Turning to `CCc1ccc(-c2nccn2-c2ccc(C=O)c(Br)c2)cc1` [Compound 18], the “stabilization of 14-3-3/CFTR peptide (in words)” value on 14-3-3ζ/CFTR peptide is “minor off-target effects”. Also, the “stabilization of 14-3-3/SOS1 peptide (in words)” value at 14-3-3ζ/SOS1 peptide is on record as “minor off-target effects”. Besides, the “stabilization of 14-3-3/p53 peptide (in words)” value on 14-3-3ζ/p53 peptide is listed as “did not show significant stabilizing activity”.
